Laboratory results: patent publication US20250051344A1, “BIFUNCTIONAL SELECTIVE DEGRADERS OF SMARCA2 AND THERAPEUTIC USES THEREOF” (Nurix Therapeutics, Inc., priority 2023, published 2025)

What was measured:
SMARCA4 = target: T1, SMARCA4 (Homo sapiens, UniProt P51532); assay: Cellular degradation assay, SMARCA4 (Table 1); type: cell-based
T1 construct: endogenous in cells

SMARCA2 = target: T2, SMARCA2 (Homo sapiens, UniProt P51531); assay: SMARCA2 Cellular Degradation Assay (Western blot analysis on Jess platform); type: cell-based; settings: for DC50 / Dmax: cellular degradation; for Fold Selectivity SMARCA4/2: ratio DC50 SMARCA4 / DC50 SMARCA2
T2 construct: endogenous in cells
Summary of the method: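 SMARCA2 protein in lysates of cells isolated from tumors was measured by capillary immunoassay at 5 μg protein per capillary, using actin as loading reference; degradation was expressed as percent SMARCA2 left compared with vehicle-treated samples.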

T1 sequence (P51532 whole entry, species assumed): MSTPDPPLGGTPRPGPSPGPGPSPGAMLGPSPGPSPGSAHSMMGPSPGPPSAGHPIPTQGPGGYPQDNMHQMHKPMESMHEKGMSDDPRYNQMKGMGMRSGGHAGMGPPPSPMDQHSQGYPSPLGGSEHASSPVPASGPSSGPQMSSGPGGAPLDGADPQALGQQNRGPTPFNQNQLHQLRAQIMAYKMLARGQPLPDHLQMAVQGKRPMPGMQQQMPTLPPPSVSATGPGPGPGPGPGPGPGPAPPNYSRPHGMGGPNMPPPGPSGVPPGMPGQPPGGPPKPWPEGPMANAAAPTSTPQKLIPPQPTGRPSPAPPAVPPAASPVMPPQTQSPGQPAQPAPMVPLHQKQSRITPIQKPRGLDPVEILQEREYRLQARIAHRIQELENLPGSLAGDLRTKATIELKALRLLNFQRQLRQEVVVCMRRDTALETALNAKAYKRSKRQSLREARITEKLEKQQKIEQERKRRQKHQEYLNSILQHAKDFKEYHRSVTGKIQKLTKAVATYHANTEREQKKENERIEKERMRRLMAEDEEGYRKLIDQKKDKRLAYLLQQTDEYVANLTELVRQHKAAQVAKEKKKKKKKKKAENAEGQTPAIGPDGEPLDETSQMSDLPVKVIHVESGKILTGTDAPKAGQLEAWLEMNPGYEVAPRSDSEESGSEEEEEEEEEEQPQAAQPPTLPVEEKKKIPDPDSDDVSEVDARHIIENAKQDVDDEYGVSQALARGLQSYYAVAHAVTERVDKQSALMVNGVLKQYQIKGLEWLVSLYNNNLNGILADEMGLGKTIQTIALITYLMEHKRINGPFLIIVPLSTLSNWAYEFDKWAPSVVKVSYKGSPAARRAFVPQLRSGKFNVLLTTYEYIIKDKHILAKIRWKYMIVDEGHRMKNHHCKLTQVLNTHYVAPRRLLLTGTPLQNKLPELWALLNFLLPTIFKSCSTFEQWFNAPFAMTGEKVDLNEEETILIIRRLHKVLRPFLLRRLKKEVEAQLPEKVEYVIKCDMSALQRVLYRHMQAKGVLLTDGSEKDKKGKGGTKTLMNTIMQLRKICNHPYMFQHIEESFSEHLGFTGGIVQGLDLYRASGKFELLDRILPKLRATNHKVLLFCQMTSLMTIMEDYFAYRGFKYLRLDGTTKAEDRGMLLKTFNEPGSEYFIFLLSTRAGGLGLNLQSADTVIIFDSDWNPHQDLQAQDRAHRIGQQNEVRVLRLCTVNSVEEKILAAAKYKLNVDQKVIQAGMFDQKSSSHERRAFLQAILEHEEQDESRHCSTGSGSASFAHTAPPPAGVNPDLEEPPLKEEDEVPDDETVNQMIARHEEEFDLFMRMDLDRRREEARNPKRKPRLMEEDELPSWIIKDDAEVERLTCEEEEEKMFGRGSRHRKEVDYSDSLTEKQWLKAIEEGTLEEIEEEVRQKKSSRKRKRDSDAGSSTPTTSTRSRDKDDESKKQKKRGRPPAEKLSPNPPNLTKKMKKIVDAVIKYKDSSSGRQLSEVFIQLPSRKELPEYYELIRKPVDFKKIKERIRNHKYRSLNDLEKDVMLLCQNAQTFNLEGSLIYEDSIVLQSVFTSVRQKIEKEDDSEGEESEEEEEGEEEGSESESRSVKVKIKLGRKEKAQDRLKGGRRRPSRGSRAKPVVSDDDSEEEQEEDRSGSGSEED
T2 sequence (P51531 whole entry, species assumed): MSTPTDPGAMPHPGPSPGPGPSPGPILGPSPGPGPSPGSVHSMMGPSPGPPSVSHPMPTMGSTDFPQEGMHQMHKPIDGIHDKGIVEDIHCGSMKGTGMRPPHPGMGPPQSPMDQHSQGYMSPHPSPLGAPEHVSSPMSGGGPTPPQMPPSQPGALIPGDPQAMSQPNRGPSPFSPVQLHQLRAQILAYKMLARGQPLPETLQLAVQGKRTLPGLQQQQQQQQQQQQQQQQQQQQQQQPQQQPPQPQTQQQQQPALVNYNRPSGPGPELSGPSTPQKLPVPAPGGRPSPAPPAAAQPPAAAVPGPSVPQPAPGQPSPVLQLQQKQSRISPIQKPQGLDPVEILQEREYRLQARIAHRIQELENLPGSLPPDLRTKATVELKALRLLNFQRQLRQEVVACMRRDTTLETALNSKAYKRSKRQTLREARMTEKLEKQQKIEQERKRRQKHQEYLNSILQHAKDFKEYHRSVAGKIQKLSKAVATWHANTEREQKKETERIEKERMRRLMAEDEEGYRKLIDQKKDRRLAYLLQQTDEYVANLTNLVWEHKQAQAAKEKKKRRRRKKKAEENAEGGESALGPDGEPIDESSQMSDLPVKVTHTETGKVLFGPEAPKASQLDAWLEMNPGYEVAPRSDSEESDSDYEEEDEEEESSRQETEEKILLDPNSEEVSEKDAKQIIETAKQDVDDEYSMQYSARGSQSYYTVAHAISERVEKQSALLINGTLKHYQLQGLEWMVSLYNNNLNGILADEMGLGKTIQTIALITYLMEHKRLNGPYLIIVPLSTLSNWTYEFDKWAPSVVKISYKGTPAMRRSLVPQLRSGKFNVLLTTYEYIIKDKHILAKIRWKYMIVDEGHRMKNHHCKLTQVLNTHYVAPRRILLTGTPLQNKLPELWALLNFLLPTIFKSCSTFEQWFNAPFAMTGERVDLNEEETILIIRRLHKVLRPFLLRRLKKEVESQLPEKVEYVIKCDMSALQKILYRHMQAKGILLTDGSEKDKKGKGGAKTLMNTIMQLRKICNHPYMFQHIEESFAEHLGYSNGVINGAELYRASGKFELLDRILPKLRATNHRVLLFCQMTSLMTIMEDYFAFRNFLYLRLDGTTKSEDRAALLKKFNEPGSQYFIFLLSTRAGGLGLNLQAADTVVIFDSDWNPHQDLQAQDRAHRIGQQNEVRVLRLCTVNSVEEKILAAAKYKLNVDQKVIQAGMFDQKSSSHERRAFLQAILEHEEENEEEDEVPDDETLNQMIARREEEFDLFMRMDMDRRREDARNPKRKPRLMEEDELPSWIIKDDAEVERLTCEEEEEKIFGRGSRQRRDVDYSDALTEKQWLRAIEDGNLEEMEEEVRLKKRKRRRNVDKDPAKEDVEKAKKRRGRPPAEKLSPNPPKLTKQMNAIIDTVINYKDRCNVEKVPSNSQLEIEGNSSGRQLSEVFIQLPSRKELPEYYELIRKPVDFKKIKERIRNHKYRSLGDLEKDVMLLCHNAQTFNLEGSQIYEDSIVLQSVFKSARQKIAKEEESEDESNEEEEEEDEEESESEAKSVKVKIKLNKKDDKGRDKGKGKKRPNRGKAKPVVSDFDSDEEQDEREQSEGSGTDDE

Row | Compound | Dmax (SMARCA4) | DC50 (SMARCA2) | Dmax (SMARCA2) | Fold Selectivity SMARCA4/2 (SMARCA2) | DC50 (SMARCA4)
1 | Cn1nccc1C1(C(=O)N2CC3(CN(CC4CCN(c5ccc(C6CCC(=O)NC6=O)cc5)CC4)C3)C2)CCN(c2cnnc(-c3ccccc3O)c2)CC1 (racemic) [Example 93, rac-(3R)-3-(4-{4-[(6-{1-[6-(2-hydroxyphenyl)pyridazin-4-yl]-4-(1-methyl-1H-pyrazol-5-yl)piperidine-4-carbonyl}-2,6-diazaspiro[3.3]heptan-2-yl)methyl]piperidin-1-yl}phenyl)piperidine-2,6-dione] | 33.8% | 21.1 nM | 69.8% | 474 | –
2 | CN(C(=O)C1(c2ccccc2)CCN(c2cnnc(-c3ccccc3O)c2)CC1)C1CCN(CCC2CCN(c3cccc4c3n(C)c(=O)n4C3CCC(=O)NC3=O)CC2)CC1 (racemic) [Example 130, rac-N-{1-[2-(1-{1-[(3r)-2,6-dioxopiperidin-3-yl]-3-methyl-2-oxo-2,3-dihydro-1H-1,3-benzodiazol-4-yl}piperidin-4-yl)ethyl]piperidin-4-yl}-1-[6-(2-hydroxyphenyl)pyridazin-4-yl]-N-methyl-4-phenylpiperidine-4-carboxamide] | 84.4% | 0.31 nM | 96.4% | 28 | 8.72 nM
3 | COC1(C(=O)NCC2(c3ccccc3)CCN(c3cnnc(-c4ccccc4O)c3)CC2)CCN(CCC2CCN(c3ccc([C@H]4CCC(=O)NC4=O)cc3)CC2)CC1 (racemic) [Example 83, rac-(r)-1-(2-(1-(4-(2,6-dioxopiperidin-3-yl)phenyl)piperidin-4-yl)ethyl)-n-((1-(6-(2-hydroxyphenyl)pyridazin-4-yl)-4-phenylpiperidin-4-yl)methyl)-4-methoxypiperidine-4-carboxamide] | 73.3% | 2.3 nM | 91.8% | 9 | 20.2 nM
4 | O=C1CCC(c2ccc(N3CCC(F)(CN4CC5(C4)CN(C(=O)C4(c6ccccc6)CCN(c6cnnc(-c7ccccc7O)c6)CC4)C5)CC3)nc2)C(=O)N1 (racemic) [Example 19, rac-(3R)-3-(6-{4-fluoro-4-[(6-{1-[6-(2-hydroxyphenyl)pyridazin-4-yl]-4-phenylpiperidine-4-carbonyl}-2,6-diazaspiro[3.3]heptan-2-yl)methyl]piperidin-1-yl}pyridin-3-yl)piperidine-2,6-dione] | 57% | 24.4 nM | 77.9% | 6.42 | 156 nM
5 | O=C1CCC(c2c(F)cc(N3CCC(CN4CCC5(CC4)CN(C(=O)C4(Oc6ccccc6)CCN(c6cnnc(-c7ccccc7O)c6)CC4)C5)CC3)cc2F)C(=O)N1 (racemic) [Example 136, rac-(3R)-3-(2,6-difluoro-4-{4-[(2-{1-[6-(2-hydroxyphenyl)pyridazin-4-yl]-4-phenoxypiperidine-4-carbonyl}-2,7-diazaspiro[3.5]nonan-7-yl)methyl]piperidin-1-yl}phenyl)piperidine-2,6-dione] | 84.2% | 2.1 nM | 94% | 8 | 17.8 nM
6 | CC1(CCN2CC3(C2)CN(C(=O)C2(c4ccccc4)CCN(c4cnnc(-c5ccccc5O)c4)CC2)C3)CCN(c2ccc(C3CCC(=O)NC3=O)cc2)CC1 (racemic) [Example 131, rac-(3R)-3-(4-{4-[2-(6-{1-[6-(2-hydroxyphenyl)pyridazin-4-yl]-4-phenylpiperidine-4-carbonyl}-2,6-diazaspiro[3.3]heptan-2-yl)ethyl]-4-methylpiperidin-1-yl}phenyl)piperidine-2,6-dione] | 38.9% | 29.4 nM | 71.3% | 340 | –
7 | O=C1CCC(c2ccc(N3CCC(CCN4CC5(CCCN(C(=O)C6(c7ccccc7)CCN(c7cnnc(-c8ccccc8O)c7)CC6)C5)C4)CC3)cc2)C(=O)N1 (racemic) [Example 167, rac-(3R)-3-(4-{4-[2-(6-{1-[6-(2-hydroxyphenyl)pyridazin-4-yl]-4-phenylpiperidine-4-carbonyl}-2,6-diazaspiro[3.5]nonan-2-yl)ethyl]piperidin-1-yl}phenyl)piperidine-2,6-dione] | 23.7% | 40.1 nM | 67.5% | 16 | 659 nM
8 | O=C1CC[C@H](c2ccc(N3CCC(CCN4CCC(C(=O)NCC5(c6ccccc6)CCN(c6cnnc(-c7ccccc7O)c6)CC5)CC45CCOCC5)CC3)cc2)C(=O)N1 (mixture of isomers) [Example 104, rac-1-(2-(1-(4-((r)-2,6-dioxopiperidin-3-yl)phenyl)piperidin-4-yl)ethyl)-n-((1-(6-(2-hydroxyphenyl)pyridazin-4-yl)-4-phenylpiperidin-4-yl)methyl)-9-oxa-1-azaspiro[5.5]undecane-4-carboxamide] | 50% | 7.3 nM | 81.8% | 1370 | –
9 | O=C1CC[C@H](c2ccc(N3CCC(CN4CC[C@@H](NC(=O)C5(c6ccccc6)CCN(c6cnnc(-c7ccccc7O)c6)CC5)CC45CCC5)CC3)cc2)C(=O)N1 [Example 190, N-[(8R)-5-[(1-{4-[(3R)-2,6-dioxopiperidin-3-yl]phenyl}piperidin-4-yl)methyl]-5-azaspiro[3.5]nonan-8-yl]-1-[6-(2-hydroxyphenyl)pyridazin-4-yl]-4-phenylpiperidine-4-carboxamide] | 58.8% | 2.72 nM | 89.2% | 30 | 81.9 nM
10 | Cn1c(=O)n(C2CCC(=O)NC2=O)c2cccc(N3CCN(CC(=O)N4CC5(C4)CN(C(=O)C4(c6ccccc6)CCN(c6cnnc(-c7ccccc7O)c6)CC4)C5)CC3)c21 (racemic) [Example 126, rac-(3R)-3-(4-{4-[2-(6-{1-[6-(2-hydroxyphenyl)pyridazin-4-yl]-4-phenylpiperidine-4-carbonyl}-2,6-diazaspiro[3.3]heptan-2-yl)-2-oxoethyl]piperazin-1-yl}-3-methyl-2-oxo-2,3-dihydro-1H-1,3-benzodiazol-1-yl)piperidine-2,6-dione] | 32.2% | 32.8 nM | 80.9% | 304 | –
11 | CN(C(=O)C1(c2ccccc2)CCN(c2cnnc(-c3ccccc3O)c2)CC1)C1CCN(CCC2CCN(c3ccc([C@H]4CCC(=O)NC4=O)cc3)CC2)CC1 [Example 192, N-{1-[2-(1-{4-[(3R)-2,6-dioxopiperidin-3-yl]phenyl}piperidin-4-yl)ethyl]piperidin-4-yl}-1-[6-(2-hydroxyphenyl)pyridazin-4-yl]-N-methyl-4-phenylpiperidine-4-carboxamide] | 46.4% | 4.58 nM | 88.8% | 28 | 128 nM
12 | CCN(C(=O)C1(c2ccccc2)CCN(c2cnnc(-c3ccccc3O)c2)CC1)C1CCN(CCC2CCN(c3ccc([C@H]4CCC(=O)NC4=O)cc3)CC2)CC1 [Example 187, N-{1-[2-(1-{4-[(3R)-2,6-dioxopiperidin-3-yl]phenyl}piperidin-4-yl)ethyl]piperidin-4-yl}-n-ethyl-1-[6-(2-hydroxyphenyl)pyridazin-4-yl]-4-phenylpiperidine-4-carboxamide] | 73.1% | 1.3 nM | 94.4% | 27 | 34.5 nM
13 | O=C1CC[C@H](c2ccc(N3CCC(CN4CCCC4C4CCCN(C(=O)C5(c6ccccc6)CCN(c6cnnc(-c7ccccc7O)c6)CC5)C4)CC3)cc2)C(=O)N1 (stereo partly drawn) [Example 37, (3R)-3-[4-(4-{[2-(1-{1-[6-(2-hydroxyphenyl)pyridazin-4-yl]-4-phenylpiperidine-4-carbonyl}piperidin-3-yl)pyrrolidin-1-yl]methyl}piperidin-1-yl)phenyl]piperidine-2,6-dione] | 33.1% | – | 47.5% | 1 | –
14 | CN(C(=O)C1(c2cnn(C)c2)CCN(c2cnnc(-c3ccccc3O)c2)CC1)C1CCN(CC2CCN(c3ccc(C4CCC(=O)NC4=O)cc3)CC2)CC1 (racemic) [Example 89, rac-N-{1-[(1-{4-[(3R)-2,6-dioxopiperidin-3-yl]phenyl}piperidin-4-yl)methyl]piperidin-4-yl}-1-[6-(2-hydroxyphenyl)pyridazin-4-yl]-N-methyl-4-(1-methyl-1H-pyrazol-4-yl)piperidine-4-carboxamide] | 47.3% | 3.8 nM | 82.1% | 2634 | –
15 | COCCN(CC1(c2ccccc2)CCN(c2cnnc(-c3ccccc3O)c2)CC1)C(=O)C1CCN(CCC2CCN(c3ccc([C@@H]4CCC(=O)NC4=O)cc3)CC2)CC1 (racemic) [Example 145, rac-(r)-1-(2-(1-(4-(2,6-dioxopiperidin-3-yl)phenyl)piperidin-4-yl)ethyl)-n-((1-(6-(2-hydroxyphenyl)pyridazin-4-yl)-4-phenylpiperidin-4-yl)methyl)-n-(2-methoxyethyl)piperidine-4-carboxamide] | 84.5% | 1.69 nM | 92.8% | 6 | 9.67 nM
16 | CN(C(=O)C1(c2ccncc2)CCN(c2cnnc(-c3ccccc3O)c2)CC1)C1CCN(CCC2CCN(c3ccc([C@H]4CCC(=O)NC4=O)cc3)CC2)CC1 [Example 140, N-{1-[2-(1-{4-[(3R)-2,6-dioxopiperidin-3-yl]phenyl}piperidin-4-yl)ethyl]piperidin-4-yl}-1-[6-(2-hydroxyphenyl)pyridazin-4-yl]-N-methyl-4-(pyridin-4-yl)piperidine-4-carboxamide] | 31.2% | 3.79 nM | 86.9% | 2641 | –
17 | O=C1CCC(c2ccc(N3CCC(CN4CC5(C4)CN(C(=O)C4(Cc6ccccc6)CCN(c6cnnc(-c7ccccc7O)c6)CC4)C5)CC3)cc2)C(=O)N1 (racemic) [Example 26, rac-(3R)-3-(4-{4-[(6-{4-benzyl-1-[6-(2-hydroxyphenyl)pyridazin-4-yl]piperidine-4-carbonyl}-2,6-diazaspiro[3.3]heptan-2-yl)methyl]piperidin-1-yl}phenyl)piperidine-2,6-dione] | 14.6% | – | 14.1% | 1 | –
